For one data set, the system named is 293T-HRE-GFP-luc cells. The data set is described as follows: Cell-based reporter assay for IC50 determinations (HRE-luciferase, hypoxia). Particulars: 6 hrs hypoxia (1% O2), luminescence. The method, boiled down:
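IC50s come from four-parameter logistic fits of luminescence. Compounds in 1:3 DMSO series were added to 293T-HRE-GFP-luc cells, 30 min normoxia preceding 6 hrs at 1% O2, 37° C; HRE-luciferase signal was then measured with Steadylite Plus reagent.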
In general terms: In a reporter assay the amount or activity of a reporter protein is the signal.

The subject of another data set is TMD8 cells. In words: Diffuse large B-cell lymphoma (DLBCL) assay, viable cells by Guava ViaCount. Format: cell-based. Conditions: varying concentrations, 7 days. How it is done:
Diffuse Large B-Cell Lymphoma (DLBCL) Assay
Equal number of TMD8 cells were plated and treated with varying concentrations of the compound of Example 7 for 7 days. Percent of viable cells was determined using Guava ViaCount reagents (EMD Millipore cat #4000-0040) that contains proprietary dyes that enable the determination of the number of live and dead cells in a sample (FIG. 1).

The subject of another data set is OCI-AML3 cell line. The data set is described as follows: Acute myeloid leukemia cell line viability. Type of data set: cell-based, human. Conditions: OCI-AML3, various concentrations, 7 days. How it is done:
(§1) The OCI-AML3 cell line was treated with various concentrations of the compound of Example 7 for 7 days and the percent of viable cells normalized to control cells treated with DMSO (FIG. 8). CD45+ primary AML cells from an AML patient or CD45+ normal bone marrow cells from a healthy volunteer were treated with the compound of Example 7 for 4 days and the number of viable cells and percentage of apoptotic (annexin V) were determined (FIGS. 9a and 9b). […] OCI-AML3 cells constitutively expressing luciferase were tail vein injected in NSG nude mice. 17 days after cell injection, luciferin was injected into animals and luciferase signal was measured using an IVIS imaging system to determine tumor burden and for randomization of subjects into study groups. On day 18, animals began receiving daily oral doses of vehicle or 60 mpk of the compound of Example 7 were started and continued throughout the study. On day 28, imaging was performed again to determine tumor burden (FIG. 10).

The subject of data set [1] is CD45+ primary AML cells from an AML patient. In words: Primary AML cells, viable cells and annexin V. Particulars: 4 days. Type of data set: cell-based, human. How it is done:
as §1

Data set [2] concerns CD45+ normal bone marrow cells from a healthy volunteer. The data set is described as follows: Normal bone marrow cells, viable cells and annexin V. Format: cell-based, human. Particulars: 4 days. How it is done:
as §1

Data set [3] has as its system OCI-AML3 cells constitutively expressing luciferase. In words: OCI-AML3 leukemia model in NSG mice (IVIS imaging, survival). Type of data set: in vivo, NSG nude mice. How it is done: as §1
Another data set deals with NB-1 cells. The data set is described as follows: Neuroblastoma cellular assay. Particulars: NB-1, various concentrations. Type of data set: cell-based. The source says: (§2) NB-1, Gli56, and D423 cell lines are deleted for ENO-1 (GLI56 and D423) or PGD, which renders them with reduced glycolytic capacity (Muller, F. et al., Nature, 2012, 488, 337-42).
A further data set concerns Gli56 cells. The data set is described as follows: Glioblastoma cellular assay. Type of data set: cell-based. Particulars: Gli56, various concentrations.
Description: as §2

Another data set has as its system D423 cells. The data set is described as follows: Cellular assay in ENO-1 deleted D423 cells. Type of data set: cell-based. Conditions: D423, various concentrations.
Description: as §2

A further data set concerns NB-1 xenografts. In words: NB-1 xenograft model. Type of data set: in vivo, CD-1 nude mice. Particulars: 40 mg/kg daily oral. An excerpt: To establish activity and provide in vivo proof of concept, NB-1 cells were implanted into CD-1 nude mice and treated with vehicle or 40 mpk of the compound of Example 7 po daily hen tumors reached 400-500 mm^3. Tumor size was measure 3×/week using caliper measurements (FIG. 4).

In the next data set the test system is H460 xenografts. In words: H460 non-small cell lung cancer xenograft. Format: in vivo, CD-1 nude mice. How it is done:
Non-Small Cell Lung Cancer: H460 cells were implanted subcutaneously in CD-1 nude mice and treated with the compound of Example 7 (40 mpk qdx 14) delivered by oral gavage for 14 days. Animals were randomized into study groups and the study initiated when the average tumor volume was 400 mm^3. During treatment, tumor volume was measured three times per week to determine tumor growth over the course of the study (FIG. 5). Nine tumor bearing mice were included in each group. On day 15, 3 hours prior to take down, hypoxyprobe (Hypoxyprobe, Inc. cat #HP3) was injected into mice. Tumor sections were stained (dark areas) for the level of hypoxia utilizing an anti-hypoxyprobe antibody and standard IHC methods (FIG. 6). The same tumors were stained for the expression of HIF regulated gene carbonic anhydrase IX (CA9) using standard IHC methods (FIG. 7).

In a further data set the test system is HN5 xenograft. In words: HN5 head and neck xenograft with fractionated irradiation. Format: in vivo, CD-1 nude mice. Conditions: 60 mg/kg daily oral and/or 4 Gy irradiation for 5 days. How it is done:
HN5 head and neck cells were injected intramuscularly into CD-1 nude mice. Upon tumors reaching 8.5 mm in diameter, animals were enrolled in the study and received either vehicle or the compound of Example 7 (days 0-5) with or without a 4 Gy dose 6 hours after the compound of Example 7 on days 1-5 of the study (FIG. 12). Tumor size was measured every other day to determine the rate of growth (FIG. 13).

Structures are written as SMILES. A value given as a limit tells only on which side of the number the result lay.

As to `CN1CCN(c2cc(Cn3cc(-c4nc(-c5ccc(OC(F)(F)F)cc5)no4)ccc3=O)ccn2)CC1` [Example 7, 1-methyl-4-(4-((2-oxo-5-(3-(4-(trifluoromethoxy)phenyl)-1,2,4-oxadiazol-5-yl)pyridin-1(2H)-yl)methyl)pyridin-1-ium-2-yl)piperazin-1-ium bis-trifluoroacetate], in the data set on 293T-HRE-GFP-luc cells, the IC50 was under 0.1 µM. Further, the “Percent of viable cells” value with TMD8 cells is on record as “respond robustly”. Also, in the data set with OCI-AML3 cell line, the “percent of viable cells normalized to DMSO control” value is listed as “reduced number of viable cells”. For the same molecule, in [1], the “number of viable cells” value is on record as “significant decrease” and the “percentage of apoptotic (annexin V) cells” value is recorded as “significant increase”. In [2], the “response (viable cells, annexin V)” value was “minimal response”. In addition, the “disease burden (IVIS imaging)” value in [3] (60 mg/kg daily oral, NSG mice) is “reduces disease burden”. For the same molecule, in data set [3] (60 mpk daily oral, relative to vehicle), the survival entry was “significantly increased their survival”. Besides, in the data set on NB-1 cells, the cell death entry is recorded as “cell death readily apparent” and the cell number entry is given as “significantly reduced”. For the same molecule, in the data set on Gli56 cells, the cell death result is “cell death readily apparent” and the cell number entry is given as “significantly reduced”. Moreover, the cell number entry with D423 cells is on record as “significantly reduced”. Further, the tumor growth entry with NB-1 xenografts is listed as “reduces the tumor growth”. Moreover, the tumor growth result with H460 xenografts (40 mpk qdx14 oral gavage) was “inhibited the growth of the H460 xenografts”. Also, in the data set on H460 xenografts (40 mpk qdx14 oral, day 15), the “carbonic anhydrase IX (CA9) protein expression in tumor (IHC)” value is “elimination of hypoxia and CA9 protein expression”; the “level of hypoxia in tumor (hypoxyprobe IHC)” value is “elimination of hypoxia”. The “tumor diameter, combination with irradiation” value in the data set with HN5 xenograft is “enhance fractionated irradidation”.
Molecule `CN1CCN(c2cc(Cn3cc(-c4nc(-c5ccc(OC(F)(F)F)cc5)no4)ccc3=O)ccn2)CC1=O` [Example 176, 1-methyl-4-{4-[(2-oxo-5-{3-[4-(trifluoromethoxy)phenyl]-1,2,4-oxadiazol-5-yl}-1,2-dihydropyridin-1-yl)methyl]pyridin-2-yl}piperazin-2-one] yielded an IC50 in the data set with 293T-HRE-GFP-luc cells (6 h) of under 0.1 µM.
The same measure, in the same setting: then `COCCOc1cccc(Cn2cc(-c3noc(-c4ccc(C(C)(C)CO)cc4)n3)ccc2=O)c1` [Example 70, 5-(5-(4-(1-Hydroxy-2-methylpropan-2-yl)phenyl)-1,2,4-oxadiazol-3-yl)-1-(3-(2-methoxyethoxy)benzyl)pyridin-2(1H)-one], with under 0.1 µM; and `COCCOc1cccc(Cn2cc(-c3noc(-c4ccc(CC(C)C)cc4)n3)ccc2=O)c1` [Example 236, 1-{[3-(2-methoxyethoxy)phenyl]methyl}-5-{5-[4-(2-methylpropyl)phenyl]-1,2,4-oxadiazol-3-yl}-1,2-dihydropyridin-2-one], with under 0.1 µM.
The same measure, in the same setting: then `O=c1ccc(-c2cc(-c3ccc(OC(F)(F)F)cc3)no2)cn1Cc1cccc(N2CCS(=O)(=O)CC2)c1` [Example 251, 1-(3-(1,1-dioxidothiomorpholino)benzyl)-5-(3-(4-(trifluoromethoxy)phenyl)isoxazol-5-yl)pyridin-2(1H)-one], with under 0.1 µM.

Broadly, the IC50 is the concentration at which inhibition is half-maximal. High values mean weaker potency in that assay, low ones greater potency in that assay.

Source of the values: patent publication US20140073634A1 (Institute For Applied Cancer Science/The University of …, priority 2012, published 2014).
